The numbers were not newly measured in patent US20240423900A1, “ANHYDROUS BARRIER AND ANTIOXIDANT COMPOSITIONS” (Baek Clinical Inc., priority 2023, published 2024), which cites them from elsewhere.

For data set [1] the following is noted: general statement, no test described.
A further data set deals with human skin. The note with it: general statement, no test described.

Turning to `CC(C)CCCC(C)CCCC(C)CCCCC(C)CCCC(C)CCCC(C)C` (centres unmarked) [Squalane, squalane], the acute toxicity entry in data set [1] was “low acute toxicity”. For the same compound, the “human skin irritant or sensitizer” value with human skin is reported as “not a significant human skin irritant or sensitizer”.
